The structures appear in SMILES notation. The source made the active and inactive calls. The calls are words filed in the database; no cut-off is given here.

Series [1] concerns Neutrophil. The series is described as follows: Cytotoxicity against […] transgenic zebrafish 24 hrs post fertilization embryo neutrophils assessed as reduction in neutrophil at 25 ug/ml treated for 72 hrs post fertilization starting from 6 to 24 hrs post fertilization. Format: cell-based, Danio rerio.
Series [2] is filed under the species Danio rerio. In words: Toxicity in wild type zebrafish embryos assessed as otoliths at 15 ug/ml treated for 96 hrs post fertilization starting from 6 hrs post fertilization by inverted microscopic analysis relative to control. Format: organism-based. As to conditions: in vivo.
For series [3], the species on record is Danio rerio. The series is described as follows: Toxicity in wild type zebrafish embryos assessed as blood circulation at 15 ug/ml treated for 96 hrs post fertilization starting from 6 hrs post fertilization by inverted microscopic analysis relative to control. Format: organism-based. As to conditions: in vivo.
The species entered for series [4] is Danio rerio. In words: Toxicity in wild type zebrafish embryos assessed as unhatched embryo at 15 ug/ml treated for 96 hrs post fertilization starting from 6 hrs post fertilization by inverted microscopic analysis relative to control. Format: organism-based. The following applies: in vivo.
The species entered for series [5] is Danio rerio. In words: Toxicity in wild type zebrafish embryos assessed as head malformation at 50 ug/ml treated for 96 hrs post fertilization starting from 6 hrs post fertilization by inverted microscopic analysis relative to control. As to conditions: in vivo. Format: organism-based.
The subject of series [6] is Neutrophil. The series is described as follows: Anti-melanogenic activity in mpx:GFP transgenic zebrafish 24 hrs post fertilization embryo neutrophils assessed as decrease in pigmentation at 25 ug/ml. It is filed as functional, cell-based. As to conditions: Danio rerio.
Series [7] concerns the target T1, Tyrosinase (Danio rerio) (UniProt A0A8M1PAD4).
T1 sequence (whole entry): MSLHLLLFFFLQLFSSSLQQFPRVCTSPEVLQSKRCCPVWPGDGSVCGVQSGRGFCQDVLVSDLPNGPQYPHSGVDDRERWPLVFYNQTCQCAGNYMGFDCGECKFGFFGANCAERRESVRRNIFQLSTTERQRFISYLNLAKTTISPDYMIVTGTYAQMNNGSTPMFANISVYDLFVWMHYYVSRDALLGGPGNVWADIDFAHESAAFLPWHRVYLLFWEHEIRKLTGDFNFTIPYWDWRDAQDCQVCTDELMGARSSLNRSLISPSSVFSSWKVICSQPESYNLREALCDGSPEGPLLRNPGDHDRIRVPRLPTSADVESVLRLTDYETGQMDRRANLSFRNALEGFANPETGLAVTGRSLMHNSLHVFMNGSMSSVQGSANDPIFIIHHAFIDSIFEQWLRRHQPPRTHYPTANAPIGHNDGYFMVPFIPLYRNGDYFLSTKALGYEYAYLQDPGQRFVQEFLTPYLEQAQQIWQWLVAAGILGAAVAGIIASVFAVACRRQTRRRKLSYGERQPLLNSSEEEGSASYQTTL
In words: Inhibition of zebrafish embryo tyrosinase assessed as residual activity at 10 ug/ml after 48 hrs relative to control.

Series [8] deals with T1, Tyrosinase (Danio rerio). The series is described as follows: Inhibition of zebrafish embryo tyrosinase assessed as melanin production at 5 ug/ml after 48 hrs relative to control; values are per cent of control.
Series [9] in a line: Toxicity in wild type zebrafish embryos assessed as dead embryo at 100 ug/ml treated for 96 hrs post fertilization starting from 6 hrs post fertilization by inverted microscopic analysis relative to control. It is filed as organism-based, Danio rerio. As to conditions: in vivo, read-out: Activity.
Series [10] is filed under the species Danio rerio. The series is described as follows: Toxicity in wild type zebrafish embryos assessed as teratogenic embryo at 2000 ug/ml treated for 96 hrs post fertilization starting from 6 hrs post fertilization by inverted microscopic analysis relative to control. Format: organism-based. As to conditions: in vivo.
The species entered for series [11] is Danio rerio. The series is described as follows: Toxicity in wild type zebrafish embryos assessed as normal embryo at 2500 ug/ml treated for 96 hrs post fertilization starting from 6 hrs post fertilization by inverted microscopic analysis relative to control. It is filed as organism-based. The following applies: in vivo.
The species named for series [12] is Danio rerio. The series is described as follows: Toxicity in wild type zebrafish embryos assessed as normal embryo at 2000 ug/ml treated for 96 hrs post fertilization starting from 6 hrs post fertilization by inverted microscopic analysis relative to control. It is filed as organism-based. The following applies: in vivo.
Series [13] is filed under the species Danio rerio. In words: Toxicity in wild type zebrafish embryos assessed as growth retardation at 2500 ug/ml treated for 96 hrs post fertilization starting from 6 hrs post fertilization by inverted microscopic analysis relative to control. The following applies: in vivo. Format: organism-based.
The species named for series [14] is Danio rerio. In words: Toxicity in wild type zebrafish embryos assessed as growth retardation at 500 ug/ml treated for 96 hrs post fertilization starting from 6 hrs post fertilization by inverted microscopic analysis relative to control. Format: organism-based. As to conditions: in vivo.
The species named for series [15] is Danio rerio. The series is described as follows: Toxicity in wild type zebrafish embryos assessed as notochord at 2500 ug/ml treated for 96 hrs post fertilization starting from 6 hrs post fertilization by inverted microscopic analysis relative to control. As to conditions: in vivo. It is filed as organism-based.
Series [16] is filed under the species Danio rerio. In words: Toxicity in wild type zebrafish embryos assessed as notochord at 1000 ug/ml treated for 96 hrs post fertilization starting from 6 hrs post fertilization by inverted microscopic analysis relative to control. Format: organism-based. The following applies: in vivo.
The species entered for series [17] is Danio rerio. In words: Toxicity in wild type zebrafish embryos assessed as notochord at 500 ug/ml treated for 96 hrs post fertilization starting from 6 hrs post fertilization by inverted microscopic analysis relative to control. Format: organism-based. As to conditions: in vivo.
The species named for series [18] is Danio rerio. In words: Toxicity in wild type zebrafish embryos assessed as notochord at 100 ug/ml treated for 96 hrs post fertilization starting from 6 hrs post fertilization by inverted microscopic analysis relative to control. It is filed as organism-based. As to conditions: in vivo.
For series [19], the species on record is Danio rerio. The series is described as follows: Toxicity in wild type zebrafish embryos assessed as otoliths at 2000 ug/ml treated for 96 hrs post fertilization starting from 6 hrs post fertilization by inverted microscopic analysis relative to control. It is filed as organism-based. As to conditions: in vivo.
Series [20] concerns Danio rerio. In words: Toxicity in wild type zebrafish embryos assessed as pericardial edema at 2500 ug/ml treated for 96 hrs post fertilization starting from 6 hrs post fertilization by inverted microscopic analysis relative to control. Format: organism-based. As to conditions: in vivo.
In series [21] the test system is Danio rerio. The series is described as follows: Toxicity in wild type zebrafish embryos assessed as pericardial edema at 2000 ug/ml treated for 96 hrs post fertilization starting from 6 hrs post fertilization by inverted microscopic analysis relative to control. Format: organism-based. The following applies: in vivo.
Series [22] relates to Danio rerio. The series is described as follows: Toxicity in wild type zebrafish embryos assessed as yolk edema at 500 ug/ml treated for 96 hrs post fertilization starting from 6 hrs post fertilization by inverted microscopic analysis relative to control. It is filed as organism-based. As to conditions: in vivo.
Series [23] is filed under the species Danio rerio. The series is described as follows: Toxicity in wild type zebrafish embryos assessed as heart beat at 100 ug/ml treated for 96 hrs post fertilization starting from 6 hrs post fertilization by inverted microscopic analysis relative to control. The following applies: in vivo. Format: organism-based.
The species entered for series [24] is Danio rerio. The series is described as follows: Toxicity in wild type zebrafish embryos assessed as blood circulation at 100 ug/ml treated for 96 hrs post fertilization starting from 6 hrs post fertilization by inverted microscopic analysis relative to control. Format: organism-based. As to conditions: in vivo.
The species entered for series [25] is Danio rerio. In words: Toxicity in wild type zebrafish embryos assessed as head malformation at 2500 ug/ml treated for 96 hrs post fertilization starting from 6 hrs post fertilization by inverted microscopic analysis relative to control. Format: organism-based. The following applies: in vivo.
The species entered for series [26] is Danio rerio. The series is described as follows: Toxicity in wild type zebrafish embryos assessed as head malformation at 2000 ug/ml treated for 96 hrs post fertilization starting from 6 hrs post fertilization by inverted microscopic analysis relative to control. As to conditions: in vivo. It is filed as organism-based.
Series [27] is filed under the species Danio rerio. In words: Toxicity in wild type zebrafish embryos assessed as head malformation at 500 ug/ml treated for 96 hrs post fertilization starting from 6 hrs post fertilization by inverted microscopic analysis relative to control. It is filed as organism-based. As to conditions: in vivo.
For series [28], the species on record is Danio rerio. In words: Toxicity in wild type zebrafish embryos assessed as skeletal deformities at 2500 ug/ml treated for 96 hrs post fertilization starting from 6 hrs post fertilization by inverted microscopic analysis relative to control. As to conditions: in vivo. Format: organism-based.
The species entered for series [29] is Danio rerio. In words: Toxicity in wild type zebrafish embryos assessed as skeletal deformities at 2000 ug/ml treated for 96 hrs post fertilization starting from 6 hrs post fertilization by inverted microscopic analysis relative to control. It is filed as organism-based. As to conditions: in vivo.
The subject of series [30] is Neutrophil. In words: Cytotoxicity against mpx:GFP transgenic zebrafish 24 hrs post fertilization embryo neutrophils assessed as loss in neutrophil at 2 to 2.5 mg/ml. Format: cell-based, Danio rerio.

Consider `O=c1cc(-c2ccccc2)c2c(O)cc(O)cc2o1`, for which the Activity result is “Non-Toxic” in the series with Neutrophil [1]; 0% in the series filed under Danio rerio [2]; 0% in the series filed under Danio rerio [3]; 0% in the series listed under Danio rerio [4]; 0% in the series listed under Danio rerio [5]; 82% on Tyrosinase (Danio rerio) [7]. Also, the result in the series on Neutrophil [6] was Active. Also, the melanin content % of control at Tyrosinase (Danio rerio) [8] is 63%.

Regarding `O=c1cc(-c2ccccc2)c2ccc(O)cc2o1`, the Activity entry with Neutrophil [1] is “Non-Toxic”; in the series filed under Danio rerio [2], 0%; in the series filed under Danio rerio [3] it was 0%; in the series listed under Danio rerio [4] it was 0%; in the series listed under Danio rerio [5] it was 0%; at Tyrosinase (Danio rerio) [7], 97%. In addition, the outcome in the series on Neutrophil [6] was Active. Further, the melanin content % of control on Tyrosinase (Danio rerio) [8] was 93%.

Take `O=c1cc(CO)occ1O` [KOJIC ACID]: in [9], the mortality at 100 ug/ml was found to be 0%. The Activity is reported as 100% in the series listed under Danio rerio [10]; 0% in the series listed under Danio rerio [11]; 0% in the series listed under Danio rerio [12]; 35% in the series listed under Danio rerio [13]; 0% in the series filed under Danio rerio [14]; 0% in the series filed under Danio rerio [15]. Further, the Activity in the series listed under Danio rerio [16] amounted to 0%; in the series filed under Danio rerio [17], 0%; in the series listed under Danio rerio [18] it was 0%; in the series listed under Danio rerio [19] it was 31.67%; in the series with Danio rerio [20], 100%; in the series with Danio rerio [21], 100%. Moreover, the Activity worked out at 0% with Danio rerio [22]; 0% in the series listed under Danio rerio [23]; 0% in the series listed under Danio rerio [24]; 98.33% in the series filed under Danio rerio [25]; 78.33% in the series filed under Danio rerio [26]; 0% in the series listed under Danio rerio [27]. The Activity in the series listed under Danio rerio [28] is on record as 98.33%; in the series filed under Danio rerio [29] it was 78.33%; in the series with Neutrophil [30] it was “Toxic”.

The values above are taken from ChEMBL document CHEMBL4177616, “Potent anti-melanogenic activity and favorable toxicity profile of selected 4-phenyl hydroxycoumarins in the zebrafish model and the computational molecular modeling studies” (Bioorg Med Chem, 2017).
